{"source": "ChEMBL document CHEMBL5154774", "about": "“Discovery of Novel Celastrol-Imidazole Derivatives with Anticancer Activity In Vitro and In Vivo” (J Med Chem, 2022)", "key": {"[1]": {"experiment": "Thiol reactivity of the compound with DTT by 1H-NMR analysis", "format": "physicochemical"}, "A549 [2]": {"system": "A549", "experiment": "Antitumor activity against human A549 cells xenografted in BALB/c mouse lung tumor model assessed as tumor inhibition rate at 0.5 mg/kg, ip measured every day for 21 days by caliper method relative to control", "format": "functional", "conditions": "A549, 504 h, time 21 day"}, "HCT-116": {"system": "HCT-116", "experiment": "Antiproliferative activity against human HCT-116 cells assessed as inhibition of cell growth incubated for 48 hrs by MTT assay", "format": "functional, cell-based", "conditions": "HCT-116, 48 h"}, "[3]": {"target": "Heat shock protein HSP90 (Homo sapiens) (UniProt P07900+P08238)", "experiment": "Binding affinity to Hsp90 (unknown origin) at 80 uM by UV-Vis spectrophotometric analysis", "format": "protein assay"}, "[4]": {"experiment": "Toxicity in BALB/c mouse xenografted with human A549 cells assessed as reduction in body weight at 0.5 to 1 mg/kg, ip measured for 21 days", "format": "organism-based", "conditions": "in vivo, 504 h, dose 0.5-1 mg/kg, time 21 day"}, "A549 [5]": {"system": "A549", "experiment": "[…] of Bcl-2 protein expression in human A549 cells at 1.25 to 5 uM incubated for 12 hrs by Western blot analysis", "format": "functional, cell-based", "conditions": "dose 1.25-5 µM"}, "A549 [6]": {"system": "A549", "experiment": "Upregulation of cleaved PARP expression in human A549 cells at 1.25 to 5 uM incubated for 12 hrs by Western blot analysis", "format": "functional, cell-based", "conditions": "dose 1.25-5 µM"}, "A549 [7]": {"system": "A549", "experiment": "Induction of apoptosis in human A549 cells assessed as downregulation of Cdk4 level incubated for 12 hrs by Western blot analysis", "format": "functional, cell-based", "conditions": "dose 1.25-5 µM, DDE = dose-dependent effect"}, "A549 [8]": {"system": "A549", "experiment": "Induction of cell cycle arrest in human A549 cells assessed as accumulation of cells at G0/G1 phase measured after 24 hrs by PI staining based flow cytometry analysis", "format": "functional", "conditions": "dose 0.1-0.4 µM, DDE = dose-dependent effect"}, "[9]": {"target": "T1, Hsp90 co-chaperone Cdc37 (Homo sapiens) (UniProt Q16543)", "T1 sequence (whole entry)": "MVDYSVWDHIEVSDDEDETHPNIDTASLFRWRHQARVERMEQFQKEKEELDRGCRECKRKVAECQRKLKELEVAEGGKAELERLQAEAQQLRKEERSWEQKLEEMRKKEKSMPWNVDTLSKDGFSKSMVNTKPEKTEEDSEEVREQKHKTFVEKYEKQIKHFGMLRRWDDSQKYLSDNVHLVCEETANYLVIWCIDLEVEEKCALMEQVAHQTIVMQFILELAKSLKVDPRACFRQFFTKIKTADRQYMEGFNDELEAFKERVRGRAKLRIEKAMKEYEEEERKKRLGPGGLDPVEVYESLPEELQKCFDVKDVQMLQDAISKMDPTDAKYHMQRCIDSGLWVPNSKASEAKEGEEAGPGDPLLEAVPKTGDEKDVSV", "experiment": "Binding affinity to Cdc37 (unknown origin) at 80 uM by UV-Vis spectrophotometric analysis"}, "A549 [10]": {"system": "A549", "experiment": "Upregulation of cleaved capase-3 expression in human A549 cells at 1.25 to 5 uM incubated for 12 hrs by Western blot analysis", "format": "functional, cell-based", "conditions": "dose 1.25-5 µM"}, "A549 [11]": {"system": "A549", "experiment": "Induction of apoptosis in human A549 cells assessed as total apoptotic cells at 0.2 uM incubated for 48 hrs Annexin V-FITC/propidium iodide staining based flow cytometry relative to control", "format": "functional"}, "A549 [12]": {"system": "A549", "experiment": "Antiproliferative activity against human A549 cells expressing Hsp90 protein assessed as inhibition of cell growth incubated for 48 hrs by MTT assay", "format": "functional, cell-based", "conditions": "A549, 48 h"}, "[13]": {"experiment": "Stability of the compound in PBS/MeOH buffer by HPLC analysis", "format": "physicochemical"}, "A549 [14]": {"system": "A549", "experiment": "Antiproliferative activity against human A549 cells expressing Cdc37 protein assessed as inhibition of cell growth incubated for 48 hrs by MTT assay", "format": "functional, cell-based", "conditions": "A549, 48 h"}, "A549 [15]": {"system": "A549", "experiment": "Induction of apoptosis in human A549 cells at 0.1 to 0.4 uM incubated for 48 hrs by Hoechst33342 staining based fluorescence microscopic analysis", "format": "functional, cell-based", "conditions": "dose 0.1-0.4 µM"}, "A549 [16]": {"system": "A549", "experiment": "Upregulation of Bax protein expression in human A549 cells at 1.25 to 5 uM incubated for 12 hrs by Western blot analysis", "format": "functional, cell-based", "conditions": "dose 1.25-5 µM"}, "A549 [17]": {"system": "A549", "experiment": "Inhibition of Hsp90-Cdc37 complex in human A549 cells assessed as decrease in Hsp90-Cdc37 protein level at 10 uM incubated for 6 hrs by co-immunoprecipitation assay relative to CEL", "format": "cell-based"}, "A549 [18]": {"system": "A549", "experiment": "Induction of apoptosis in human A549 cells assessed as downregulation of p-Akt level incubated for 12 hrs by Western blot analysis", "format": "functional, cell-based", "conditions": "dose 1.25-5 µM, DDE = dose-dependent effect"}, "A549 [19]": {"system": "A549", "experiment": "Antitumor activity against human A549 cells xenografted in BALB/c mouse lung tumor model assessed as tumor weight at 1 mg/kg, ip measured every day for 21 days by caliper method", "format": "functional", "conditions": "time 21 day"}, "U2OS": {"system": "U2OS", "experiment": "Antiproliferative activity against human U2OS cells assessed as inhibition of cell growth incubated for 48 hrs by MTT assay", "format": "functional, cell-based"}, "A549 [20]": {"system": "A549", "experiment": "Antitumor activity against human A549 cells xenografted in BALB/c mouse lung tumor model assessed as tumor inhibition rate at 1 mg/kg, ip measured every day for 21 days by caliper method relative to control", "format": "functional", "conditions": "A549, 504 h, time 21 day"}, "A549 [21]": {"system": "A549", "experiment": "Antiproliferative activity against human A549 cells expressing Hsp90-Cdc37 protein assessed as inhibition of cell growth incubated for 48 hrs by MTT assay", "format": "functional, cell-based", "conditions": "A549, 48 h"}, "A549 [22]": {"system": "A549", "experiment": "Antiproliferative activity against human A549 cells assessed as inhibition of cell growth incubated for 48 hrs by MTT assay", "format": "functional, cell-based", "conditions": "A549, 48 h"}, "A549 [23]": {"system": "A549", "experiment": "Induction of apoptosis in human A549 cells assessed as total apoptotic cells at 0.4 uM incubated for 48 hrs Annexin V-FITC/propidium iodide staining based flow cytometry relative to control", "format": "functional"}, "MDA-MB-231": {"system": "MDA-MB-231", "experiment": "Antiproliferative activity against human MDA-MB-231 cells assessed as inhibition of cell growth incubated for 48 hrs by MTT assay", "format": "functional, cell-based", "conditions": "MDA-MB-231, 48 h"}, "A549 [24]": {"system": "A549", "experiment": "Induction of apoptosis in human A549 cells assessed as total apoptotic cells at 0.8 uM incubated for 48 hrs Annexin V-FITC/propidium iodide staining based flow cytometry relative to control", "format": "functional"}}, "note": "Active and inactive are the calls of the source. The calls are words filed in the database; no cut-off is given here.", "data": [{"smiles": "CC1=C(O)C(=O)C=C2C1=CC=C1[C@@]2(C)CC[C@@]2(C)[C@@H]3C[C@](C)(C(=O)OCCCn4cc([N+](=O)[O-])nc4Cl)CC[C@]3(C)CC[C@]12C", "values": [{"measurement": "Activity", "setting": "[1]", "value": "Active"}, {"measurement": "inhibition in vivo at 0.5 mg/kg", "setting": "A549 [2]", "value": 54.1, "unit": "%"}, {"measurement": "IC50", "setting": "HCT-116", "value": 0.59, "unit": "µM"}, {"measurement": "Activity", "setting": "[3]", "value": "Active"}, {"measurement": "Activity", "setting": "[4]", "value": "Non-Toxic"}, {"measurement": "Activity", "setting": "A549 [5]", "value": "Active"}, {"measurement": "Activity", "setting": "A549 [6]", "value": "Active"}, {"measurement": "Activity", "setting": "A549 [7]", "value": "Dde"}, {"measurement": "Activity", "setting": "A549 [8]", "value": "Dde"}, {"measurement": "Activity", "setting": "[9]", "value": "Active"}, {"measurement": "Activity", "setting": "A549 [10]", "value": "Active"}, {"measurement": "Activity", "setting": "A549 [11]", "value": 9, "unit": "%"}, {"measurement": "IC50", "setting": "A549 [12]", "value": "> 100", "unit": "µM"}, {"measurement": "Stability", "setting": "[13]", "value": "Stable"}, {"measurement": "IC50", "setting": "A549 [14]", "value": "> 100", "unit": "µM"}, {"measurement": "Activity", "setting": "A549 [15]", "value": "Active"}, {"measurement": "Activity", "setting": "A549 [16]", "value": "Active"}, {"measurement": "inhibition", "setting": "A549 [17]", "value": 33.3, "unit": "%"}, {"measurement": "Activity", "setting": "A549 [18]", "value": "Dde"}, {"measurement": "Activity", "setting": "A549 [19]", "value": 0.46, "unit": "g"}, {"measurement": "IC50", "setting": "U2OS", "value": 0.57, "unit": "µM"}, {"measurement": "inhibition in vivo at 1 mg/kg", "setting": "A549 [20]", "value": 68.3, "unit": "%"}, {"measurement": "IC50", "setting": "A549 [21]", "value": "> 100", "unit": "µM"}, {"measurement": "IC50", "setting": "A549 [22]", "value": 0.54, "unit": "µM"}, {"measurement": "Activity", "setting": "A549 [23]", "value": 11.7, "unit": "%"}, {"measurement": "IC50", "setting": "MDA-MB-231", "value": 0.57, "unit": "µM"}, {"measurement": "Activity", "setting": "A549 [24]", "value": 29.9, "unit": "%"}]}]}
